From patent US20260091030A1, “HIGH-DOSE NALOXONE FORMULATION” (SRI INTERNATIONAL, priority 2022, published 2026)

How the values were obtained:
[1] = Initial pH stability of Naloxone hydrochloride in 10 mM buffers pH 3.0-10.6, 7 days (concentration, pH, Noroxymorphone by HPLC); assay type: physicochemical
Description: FIG. 3 is a graph that depicts the concentration of Naloxone in various buffers at t=0 and t=7. The t=7 represents samples stored at either 40° C. or 60° C. for up to 7 days. […] The 15 mg/ml was chosen for pH stability studies and a final formulation of Naloxone is planned to be at 10 mg/ml strength. The maximum possible solubility of drug substance at various buffers will be performed in a “pH solubility” study. […] Naloxone precipitated in solution maintained at pH 7.4-10.6. The glycine-sodium hydroxide buffer system fared slightly better, however not as well as the buffers that maintained pH at 3.0-6.5. It is likely that buffer strength higher than 10 mM is required for pH 7.0-11 buffer systems. […] Based on the pKa values, solubility of Naloxone is expected to be higher at lower pH conditions.
FIG. 4 is a graph that depicts the change in pH of Naloxone in various buffers t=0 and t=7. The t=7 represents samples stored at either 40° C. or 60° C. for up to 7 days. FIG. 4 follows the change in pH for the buffered naloxone samples as a function of time and temperature of storage. It appears that higher pH instability and higher temperature degradations are concerns for Naloxone formulations. Optimum buffering of Naloxone appears to occur at pH 3-4.6; at the molarity tested.
FIG. 5 is a graph that depicts pH-stability of Naloxone after 7 days at room temperature by showing Naloxone and Noroxymorphone concentrations in various buffers assayed by HPLC. Temperature and duration of sample storage are at ambient temperature for 7 days.
FIG. 6 is a graph that depicts pH-stability of Naloxone after 7 days at 40° C. and 75% relative humidity by showing Naloxone and Noroxymorphone concentrations in various buffers assayed by HPLC. Temperature and duration of sample storage are at 40° C. and 75% relative humidity for 7 days. FIG. 6 follows up on the conclusions drawn from the experiment conducted that underlies FIG. 5. Raising the temperature incudes greater formation of Noroxymorphone, and this effect is more pronounced in formulations with a higher pH.
FIG. 7 is a graph that depicts pH-stability of Naloxone after 7 days at 60° C. by showing Naloxone and Noroxymorphone concentrations in various buffers assayed by HPLC. Temperature and duration of sample storage are at 60° C. and humidity was not maintained for 7 days. At even higher temperatures, Noroxymorphone was detected in all formulations across all respective pHs.
Buffers used in intramuscular formulations range from 1-100 mM, but lower molar strengths are known to cause less myotoxicity resulting in less “pain” at the site of injection (Napaporn et al., Pharm. Dev. Technol. 5(1): 123-30 (2000). For the purpose of these initial pH stability experiment, a buffer strength of 10 mM was chosen. Buffers tested ranged from pH 3.0-10.6. Intramuscular formulations below pH 3.0 are extremely rare, owing to excessive acidity which can cause a burning sensation. Table 1 lists the various buffer systems used for this study.
Buffers were created and mixed to a concentration of 10 mM with the pH stabilized. […] Buffers tested ranged from pH 3.0-10.6. Intramuscular formulations below pH 3.0 are rare due to discomfort associated with the injection site.

[2] = pH-stability with and without buffering agents under nitrogen gas overlay / excipient compatibility study; assay type: physicochemical
Description: FIG. 16 is a graph showing pH fluctuations in samples under nitrogen gas overlay, specifically change in pH of Naloxone solutions in water and buffers at pH 3.0 and 4.6 on Day 0 and Day 7. The Day 7 represents samples stored at either room temperature, 40° C. and 75% relative humidity or 60° C. or 25° C. and 60% relative humidity (in amber vials) for up to 7 days.
Samples prepared for pH-Stability of naloxone with and without buffering agents (citrate and acetate at pH 3.0 and pH 4.6 respectively) under nitrogen gas overlay were left at 40° C.±2° C./75%±5% relative humidity (RH) and at 60° C. for a total of 5 weeks for this excipient compatibility study. A stability storage chamber was used for 40° C.±2° C./75%±5% while a regular oven was used for the 60° C. samples. Briefly, naloxone samples were prepared in 20 ml of water for injection or freshly prepared 10 mM citrate buffer and/or acetate buffer in 25 ml volumetric flask. […] The pH of the naloxone solutions was adjusted to 3.0 and 4.6 with 0.1N HCl solution. Samples were diluted up to the 25 ml mark with water for injection or citrate buffer pH 3.0 or acetate buffer pH 4.6. These naloxone solutions were filtered using 0.22 μm, 13 mm, PVDF (Pall scientific) syringe filters and pH of the filtrate was measured. The filtered solution was aliquoted into 2.0 ml clear, sterile, Type-I glass vials and closed with 13 mm red rubber closures crimped with aluminum blue flip cap seals. All vials were overlaid with nitrogen gas (filtered with 0.22u PTFE, Acro®50 Vent In-Line filter, Pall scientific) before sealing and stored at 40° C.±2° C./75%±5% relative humidity (RH) or 60° C. for 5 weeks. These samples were evaluated for pH, assay and impurities of naloxone at intervals of T=0, 1 week and T=5 weeks. […] These samples were analyzed at T=2 weeks and T=5 weeks for pH, assay and impurities for naloxone. […]
The pH and assay of naloxone for excipient compatibility samples stored at 40° C.±2° C./75%±5% RH and 60° C. on T=0-day, 1 week and T=5 weeks were evaluated.

physchem = conditions: thermodynamic from solid

For `C=CCN1CC[C@]23c4c5ccc(O)c4O[C@H]2C(=O)CC[C@@]3(O)[C@H]1C5.Cl` [Naloxone hydrochloride, (−)-17-Allyl-4, 5 α-epoxy-3,14-dihydroxymorphinan-6-one hydrochloride], the “dissolution at 15 mg/ml in buffer” value ([1]; 10 mM buffer systems at pH 7.4 (sodium phosphate monobasic/dibasic) and pH 10.6 (carbonate-bicarbonate)) was “did not dissolve efficiently”, the “pH of optimum buffering” value ([1]; 10 mM buffers, up to 7 days at 40° C. or 60° C.) was 3-4.6 and the “Noroxymorphone detected by HPLC” value ([1]; 7 days at ambient temperature, pH 7.4 sodium phosphate and pH 10 glycine buffer versus pH lower than 6.5) was “Greater amounts of Noroxymorphone were detected”. For the same compound, the “Noroxymorphone formation by HPLC” value ([1]; citrate buffer at pH 3, 7 days at 60° C.) was “significantly less Noroxymorphone formation than all of the other formulations tested”, the precipitation in solution ([1]; solution maintained at pH 7.4-10.6) was “precipitated” and the “change in pH” value ([2]; 10 mM citrate and acetate buffers at pH 3.0 and 4.6, nitrogen overlay, seven days at room temperature, 40° C./75% RH, 60° C., 25° C./60% RH (amber vials)) was “no change in pH”. The “change in pH” value ([2]; without buffers at pH 3.0, nitrogen overlay, seven days at room temperature, 40° C./75% RH, 60° C., 25° C./60% RH (amber vials)) was “no change in pH”, the “change in pH” value ([2]; without buffers at pH 4.6, nitrogen overlay, seven days) was “increased” and the solubility (physchem; pH 5, aqueous buffer) was 204 mg/mL. For the same compound, the solubility (physchem; pH 10, aqueous buffer) was 90.5 mg/mL.
